# Experimental data published in patent US20090252834A1, “Compositions comprising glucose anti-metabolites” (priority 2004, published 2009).
# Tests used:
# [1] = injected into a rat; cited from earlier work
# rats [2] = settings: by injection, in rats; cited from earlier work
# [3] = high doses; cited from earlier work
# rodents = settings: long-term; cited from earlier work
# [4] = rats, cited from earlier work
# [5] = tested on: fruit flies and/or nematodes; test: Lifespan of fruit flies and/or nematodes fed mannoheptulose; assay type: in vivo
# Text: (§1) Both of these endpoints are closely related to altered glucose and/or carbohydrate metabolism, similar to that elicited by dietary caloric restriction.
# [6] = cited from earlier work
# [7] = Pharmacokinetics of mannoheptulose, once daily in a nutritionally-balanced composition, adult Labrador Retrievers; assay type: in vivo, Labrador Retriever dogs
# Description: The pharmacokinetics of mannoheptulose can be determined in six adult, male Labrador Retriever dogs fed a nutritionally-balanced composition providing mannoheptulose at levels of 0, 1 or 2 mg/kg of body weight of the dog. Mannoheptulose is provided as an enriched source of avocado extract in the 1 and 2 mg/kg diets. The mean age of the dogs is 4.2 years and the age ranges from 3.3 to 6.1 years. The average body weight of all dogs is 33 kg and the body weight ranges from 28 to 36 kg. Dogs are adapted for 14 days to a nutritionally-balanced control composition (Eukanuba Senior Maintenance Formula) containing no mannoheptulose, avocado extract or avocado meal (0 mg/kg mannoheptulose). The two compositions containing mannoheptulose are the nutritionally-balanced control composition formulated with avocado extract to provide a mannoheptulose dose of 1 or 2 mg/kg of body weight when fed to a dog. The amount of composition offered to the dogs is based on feeding guidelines for the control composition and the target weight range and body condition of the dogs. After 14 days, dogs are fed one of the three compositions for 9 days. On day 9, the dogs are fed their daily allotment of composition as a single meal at 0730. Dog 1 and dog 2 are fed the control composition containing 0 mg/kg mannoheptulose, dog 3 and dog 4 are fed the composition containing 1 mg/kg mannoheptulose, and dog 5 and dog 6 are fed the composition containing 2 mg/kg mannoheptulose. Pharmacokinetics of mannoheptulose following once daily administration of mannoheptulose in a nutritionally-balanced composition is determined by collecting serial blood samples (3 mL) from each dog on day 9 using a Vacutainer blood collection system and jugular venipuncture. Blood samples are collected at −30, 0, 30, 60, 90, 120, 240, 360, 480, 600, 720 and 1,440 minutes relative to each dog receiving their entire daily allotment of composition as a single meal. Plasma mannoheptulose concentrations are measured using high-performance liquid chromatography tandem mass spectrometry as described herein below.
# A one-compartment model is used to calculate mannoheptulose pharmacokinetics based on plasma mannoheptulose levels following once daily oral administration of mannoheptulose in a nutritionally-balanced composition (PV(t)). The model is: PV(t)=dose/(a·BW)e^−kt where: a mannoheptulose pool size (dose/(enrichment at to)), BW=body weight, k=rate constant of elimination (In Et−1n E0)/−t, and t=time. Area under each plasma mannoheptulose curve is determined using a one-way, repeated measures analysis of variance (GraphPad Prism version 4.00 for Windows).
# High performance liquid chromatography tandem mass spectrometry (HPLC/MS/MS) is utilized to determine the amount of mannoheptulose present in the plasma of adult dogs. D-mannoheptulose and its chemical analog internal standard (D7-glucose) are isolated from dog plasma by a protein precipitation procedure (described herein below) using a 96-well format. […] Detection and quantitation is by mass spectrometry (MS) operating under multiple reaction monitoring MS/MS conditions. Concentrations of D-mannoheptulose in dog plasma can be quantitated from approximately 20 to 5000 ng/mL. […] Specimen concentrations are determined by back-calculation using a weighted (1/x^2) linear regression of a calibration curve generated from prepared D-mannoheptulose calibration standards.
# [8] = tested on: older Labrador Retrievers; test: ADL-Jump (jumping over hurdles) of older dogs; assay type: in vivo, Labrador Retriever dogs; settings: 2 mg/kg, across all four quarters
# Description: (§2) A total of 39 older Labrador Retrievers are fed a nutritionally-balanced composition providing mannoheptulose at levels of 0 or 2 mg/kg of body weight of the dog. Average age of the dogs (12 neutered males, 27 spayed females) at the start of a 4-year study is 6.7 years with a range of 5.1 to 8.2 years of age for the youngest and oldest dog within the cohort, respectively. The 0 mg/kg composition is fed as a nutritionally-balanced control composition (Eukanuba Senior Maintenance Formula) and it contains no mannoheptulose, avocado extract or avocado meal. The 2 mg/kg composition is the nutritionally-balanced control composition formulated with avocado extract to provide mannoheptulose at a dose of 2 mg/kg body weight of the dog. The nutritionally-balanced composition containing 0 mg/kg mannoheptulose is referred to as Diet 1 within this Example. The nutritionally-balanced composition containing 2 mg/kg mannoheptulose is referred to as Diet 2 within this Example. […]
# (§3) Shoulder height of each individual dog is measured using a tape measure and recorded. […]
# (§4) The ADL-Table activity requires the dog to jump on to and down from the platform of four tables of graduated heights, starting with the lowest table height first. […] For both activities, dogs are scored for the number of attempts at each graduated height and the successful completion of each height. […]
# [9] = Pharmacokinetics of mannoheptulose, twice daily in a nutritionally-balanced composition, older Labrador Retrievers; assay type: in vivo, Labrador Retriever dogs; settings: 2 mg/kg; for half-life: female, Labrador Retriever, dog, plasma, oral
# Description: The pharmacokinetics of mannoheptulose can be determined in ten adult, female Labrador Retriever dogs fed a nutritionally-balanced composition providing mannoheptulose at levels of 0 or 2 mg/kg of body weight of the dog. Mannoheptulose is provided as avocado extract in the 2 mg/kg diet. The mean age of the dogs is 7.1 years and the age ranges from 5.3 to 8.4 years. Dogs are age-matched across the two composition groups. The average body weight of all dogs is 29 kg and ranges from 25 to 35 kg. The 0 mg/kg composition is fed as a nutritionally-balanced control composition (Eukanuba Senior Maintenance Formula) and it contains no mannoheptulose, avocado extract or avocado meal. The 2 mg/kg composition is the nutritionally-balanced control composition formulated to contain avocado extract to provide mannoheptulose at a dose of 2 mg/kg of body weight of the dog. The amount of composition offered to the dogs is based on feeding guidelines for the control composition and the target weight range and body condition of the dogs. Dogs are fed one-half their daily allotment of composition at 0730 and the remaining half at 1330. Dogs 1, 2, 3, 4 and 5 are fed the composition containing 2 mg/kg mannoheptulose and dogs 6, 7, 8, 9 and 10 are fed the composition containing 0 mg/kg mannoheptulose. Pharmacokinetics of mannoheptulose following twice daily administration of mannoheptulose in a nutritionally-balanced composition is determined by collecting serial blood samples (3 mL) from each dog using a Vacutainer blood collection system and jugular venipuncture. […] Plasma mannoheptulose concentrations are measured using high-performance liquid chromatography tandem mass spectrometry as described herein below.
# A one-compartment model is used to calculate mannoheptulose pharmacokinetics based on plasma mannoheptulose levels following twice daily oral administration of mannoheptulose in a nutritionally-balanced composition (PV(t)). The model is: PV(t)=dose/(a·BW)e^−kt where: a=mannoheptulose pool size (dose/(enrichment at to)), BW=body weight, k=rate constant of elimination (In Et−1n E0)/−t, and t=time.
# High performance liquid chromatography tandem mass spectrometry (HPLC/MS/MS) is utilized to determine the amount of mannoheptulose present in the plasma of adult dogs. D-mannoheptulose and its chemical analog internal standard (D7-glucose) are isolated from dog plasma by a protein precipitation procedure (described herein below) using a 96-well format. The analyte and internal standard are subjected to reverse-phase high performance liquid chromatographic (HPLC) analysis on a polymeric amino column (2.1×150 mm, 5-μm particles). Detection and quantitation is by mass spectrometry (MS) operating under multiple reaction monitoring MS/MS conditions. Concentrations of D-mannoheptulose in dog plasma can be quantitated from approximately 20 to 5000 ng/mL. The assay requires a 0.1 mL aliquot of dog plasma harvested from a Na2EDTA anti-coagulant blood collection tube. Specimen concentrations are determined by back-calculation using a weighted (1/x^2) linear regression of a calibration curve generated from prepared D-mannoheptulose calibration standards.
# mice = test: Mice fed a diet containing mannoheptulose; assay type: in vivo
# Text: as §1
# [10] = tested on: older Labrador Retrievers; test: ADL-Table (jumping onto table platforms) of older dogs; assay type: in vivo, Labrador Retriever dogs; settings: 2 mg/kg, across all four quarters
# Description: as §2, §3, §4
# isolated rat hepatocytes = settings: cited from earlier work
# rats [11] = settings: cited from earlier work
# [12] = in contrast with 2-deoxy-D-glucose; cited from earlier work
# [13] = twice daily, after the afternoon meal
# [14] = twice daily, after the morning meal
smiles,measurement,setting,value
"O=C[C@H](O)[C@@H](O)[C@H](O)[C@H](S)CO [5-Thioglucose, 5-thio-D-glucose]",5-thioglucose excreted unchanged in urine,[1],97%
same,LD50,rats [2],14000 mg/kg
O=CC[C@@H](O)[C@H](O)[C@H](O)CO [2-deoxy-D-glucose],side effects and toxicity,[3],significant untoward side effects and toxicity have been observed
same,"metabolic hallmarks of caloric restriction (reduced body temperature, weight loss, lower fasting insulin levels)",rodents,can mimic some of the major metabolic hallmarks of caloric restriction
O=C(CO)[C@@H](O)[C@@H](O)[C@H](O)[C@H](O)CO [mannoheptulose],injected mannoheptulose remained in the body,[4]; a day after the injection,5%
same,injected mannoheptulose excreted unchanged,[4]; injection,66%
same,injected mannoheptulose metabolized,[4]; injection,29%
same,lifespan extension,[5],~50%
same,mannoheptulose ingested appearing in urine,[6]; after oral administration,About 5%
same,safety of oral administration,"[6]; humans, doses of 10 grams, orally",safely administered
same,response of plasma mannoheptulose levels to dietary mannoheptulose levels,"[7]; 0, 1, 2 mg/kg",dose-dependent manner
same,time for plasma mannoheptulose to return to non-detectable levels,[7]; after consumption of the single daily meal,≤ 24 h
same,half-life,"[7]; male, Labrador Retriever, dog, plasma, once daily oral, 2 mg/kg, mathematical modeling",6.25 h
same,turnover time,"[7]; once daily oral, 2 mg/kg, mathematical modeling",9.0 h
same,order of plasma kinetics,"[7]; once daily oral, 1 or 2 mg/kg",first order kinetics
same,percentage of older dogs successfully jumping heights vs composition devoid of mannoheptulose,[8],a greater percentage of older dogs are able to successfully jump all heights
same,half-life,[9]; [13],5.63 h
same,half-life,[9]; [14],5.42 h
same,order of plasma kinetics,[9]; twice daily oral,first order kinetics
same,return of plasma mannoheptulose to undetectable levels,[9]; twice daily,by the following morning
same,turnover time,[9]; [13],3.90 h
same,turnover time,[9]; [14],7.8 h
same,time to second peak in plasma mannoheptulose after afternoon meal,"[9]; twice daily, afternoon meal",4 h
same,time to peak plasma mannoheptulose levels after initial feeding,"[9]; twice daily, morning meal",4 h
same,body weight,mice,slightly reduced body weight
same,plasma insulin levels,mice,reduced plasma insulin levels
same,percentage of older dogs successfully jumping onto platforms vs composition devoid of mannoheptulose,[10],"a greater percentage of older dogs can successfully jump onto platforms that are 70, 80, 90 and 100% of their shoulder height"
"OC[C@H]1O[C@H](CO)[C@@H](O)[C@@H]1O [2,5-Anhydro-D-mannitol, 2,5-anhydro-D-mannitol]",glucose formation and utilization,isolated rat hepatocytes,interfere in glucose formation and utilization
CO[C@@H]([C@H](O)[C@H](O)CO)[C@@H](O)C=O [3-O-methylglucose],responses to administration compared with 2-deoxyglucose,rats [11],about seven times weaker
same,metabolism of the glucose analog,[12],not metabolized
